These results are taken from the METLIN SMRT retention time set (Domingo-Almenara et al. 2019).

The data set in a line: gradient 5% acetonitrile 3 min, to 50% in 2 min, to 85% in 15 min, held 3 min, 100 µL/min. The settings on record: column: Zorbax Extend-C18 2.1 x 50 mm; eluents: water / acetonitrile, 0.1% formic acid. The essentials:
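Retention times of pure standards were taken from adduct peaks that were selected by computer and manually inspected. Over 3 months, mixtures of ~100 molecules were run by HPLC–quadrupole time-of-flight mass spectrometry in positive and negative ionization mode. The Zorbax Extend-C18 column (2.1 × 50 mm, 1.8 μm) ran at 100 μL/min in water and acetonitrile, each containing 0.1% formic acid, with 40 μL dead volume and 900 μL dwell volume.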
Consider `CC1=C(c2ccccc2)S(=O)(=O)N=C1N1CCCN(C(=O)Nc2cccc(C#N)c2)CC1`, for which the RP-LC retention time is 814 s.

The compound `Cc1oc(-c2ccc(NC(=O)CCc3ccccc3)cc2)nc1Cn1cccn1` yielded an RP-LC retention time of 897 s.

The compound `CCCNS(=O)(=O)c1c(C)sc(C)c1-c1cc(C(F)(F)F)on1` yielded an RP-LC retention time of 1130 s.

For the compound `CCOC(=O)Cc1[nH]nc2ccc(F)cc12`, the RP-LC retention time worked out at 697 s. The figure for `Cc1cc(N)n(Cc2ccccc2)n1` is 569 s; for `COc1cc(NC(=O)N2CCN(c3cc(C)nc(N4CCCC4)n3)CC2)cc(OC)c1OC` it is 634 s. As for `O=C(Nc1cccc(-c2nnc3n2CCCC3)c1)c1ccoc1`, the figure is 640 s. `N#CC1(c2ccc(NC(=O)c3cccnc3NCc3ccncc3)cc2)CCCC1`: the RP-LC retention time amounted to 734 s. The figure for `COc1ccc(CCS(=O)(=O)NCC2(CO)CC2)cc1` is 662 s; for `COC(=O)c1ccccc1S(=O)(=O)N1CCc2c(c(-c3nnc(-c4ccc(F)cc4)o3)nn2C)C1` it is 915 s; for `CCN(CC)C(=O)c1ccc2oc(CN3CCN(C(=O)NCC(C)C)CC3)nc2c1` it is 624 s. For the compound `CN1c2cc(F)ccc2C(=O)NC12CCN(C(=O)NCCc1ccccc1)CC2`, the RP-LC retention time turned out to be 761 s. `COc1ccc(NC(=O)Nc2c(-c3cccc(C)c3)nc3ccccn23)cc1`: the RP-LC retention time was determined as 658 s. Compound `Cc1ccc(Nc2nc(C)cc3nn(CC(=O)Nc4ccc(N(C)C)cc4)c(=O)n23)cc1` had an RP-LC retention time of 800 s. As to `CC(C)n1cnc2cc(CNC(=O)Cc3ccccc3F)ccc21`, the RP-LC retention time was 623 s. The compound `CCCNC(=O)c1cn(-c2cc(-c3nc(C4CC4)no3)ccn2)cn1` displayed an RP-LC retention time of 818 s. The compound `O=C(Nc1ccc2c(c1)OCO2)Nc1ccc2c(c1)N(C(=O)c1ccccc1)CC2` yielded an RP-LC retention time of 882 s. As for `CC(=O)N1c2ccc(S(=O)(=O)N3CCCCC3)cc2CC1C(=O)NC1CCCC1` (stereo not given), the figure is 830 s; as for `COC(=O)c1cccc(NC(=O)N2CCC3(CC2)NC(=O)c2ccccc2O3)c1`, 736 s. As for `COc1ccc(-n2nnc(-c3nsc(Nc4ccc(OC)c(Cl)c4)n3)c2C)cc1`, the RP-LC retention time came to 1010 s. As for `Cc1nn(Cc2nc(-c3ccc(NC(=O)c4ccsc4)cc3)oc2C)c(C)c1C`, the figure is 955 s; as for `O=C(NC1CCCCC1)C1CCN(c2ncccc2-c2nc(-c3ccc(Cl)cc3)no2)CC1`, 1230 s. For `COc1ccc(NC(=O)CN2C(=O)NC3(CCCCC3)C2=O)cc1Cl`, the RP-LC retention time came to 778 s. `CCCc1ccc(-c2cc(C(=O)N3CCN(c4ncccn4)CC3)c3ccccc3n2)cc1`: the RP-LC retention time came to 1180 s.

With `COc1ccc(Cn2cc(S(=O)(=O)N3CCCC3)ccc2=O)cc1`, the RP-LC retention time was determined as 796 s. `NC(=O)C1CCN(C(=O)c2cccc(NC(=O)c3nsc4ccccc34)c2)CC1` returned an RP-LC retention time of 703 s. `CCN1CCN(CCNC(=O)C2CCN(Cc3cn(C)c4ccc(Cl)cc34)CC2)CC1` showed an RP-LC retention time of 561 s. Compound `N#Cc1ccc(C(=O)N2CCCC2c2nc(-c3cccc(C(F)(F)F)c3)no2)cc1` (stereo not given) registered an RP-LC retention time of 1060 s. `Cc1cccc2c(C(N)=O)cc(N3CCN(C)CC3)nc12` showed an RP-LC retention time of 579 s. As for `Cn1c(CNC(=O)C2CCC2)nc2c1CN(S(=O)(=O)c1cccs1)CC2`, the figure is 617 s. `Cc1ccc2oc(N3CCCN(C(=O)c4ccc(-c5noc(C(C)C)n5)cc4)CC3)nc2n1` came in with an RP-LC retention time of 664 s. As for `COc1cc(NC(=O)CN2C(=O)CN=C(c3ccccc3Cl)c3cc(Cl)ccc32)cc(OC)c1`, the figure is 990 s. Turning to `CCOc1ccc(-c2csc(NC(=O)CCn3c(=O)oc4ccccc43)n2)cc1`, the RP-LC retention time worked out at 997 s. For `Cc1nn(C2CCS(=O)(=O)C2)c(C)c1N1CCN(C(=O)c2cc3ccccc3[nH]2)CC1` (stereo not given), the RP-LC retention time came to 747 s. As for `CNC(=O)N1CCC(C2CCN(C(=O)CSC)C2)CC1` (stereo not given), the figure is 608 s; as for `COc1ccccc1N1CCN(C(=O)C2CCN(C(=O)C3Sc4ccccc4NC3=O)CC2)CC1` (stereo not given), 717 s. For `C/C(=N\O)C1CC(CC(=O)O)C1(C)C` (stereo not given), the RP-LC retention time is 688 s.

`COc1ccc(N2CCN(C(=O)C34CCC(C)(C(=O)C3)C4(C)C)CC2)cc1` (stereo not given) came in with an RP-LC retention time of 784 s.

`O=C(NCc1ccco1)c1c(O)c2sccc2[nH]c1=O` yielded an RP-LC retention time of 787 s. `CN(C)c1ccccc1CN1CCCN(Cc2ccccc2N(C)C)C1c1ccncc1` displayed an RP-LC retention time of 711 s. `CCC(C)(C)C(=O)N1CCCN(C2=NS(=O)(=O)C(c3ccc(C)cc3)=C2C)CC1` showed an RP-LC retention time of 915 s.

Compound `NC(=O)c1cnc(-c2ccccc2)n(CC(=O)Nc2ccccc2Br)c1=O` returned an RP-LC retention time of 740 s. The figure for `CCc1nc2cc(-c3noc(-c4cc(Cl)ccc4OC)n3)ccc2o1` is 1220 s. The compound `CCSc1ccccc1C(=O)Nc1cccc2ccc(OC)nc12` gave an RP-LC retention time of 1200 s. Turning to `O=C(Nc1cccc(Cl)c1)c1c(O)c2cccnc2n(-c2cccc(F)c2)c1=O`, the RP-LC retention time was 1360 s. As to `COc1nc2ccccc2nc1N1CCCC(C(=O)NC2CCCCCC2)C1` (stereo not given), the RP-LC retention time was found to be 1090 s. With `Cc1ccccc1N1C(=O)CC(N2CCC(C(N)=O)CC2)C1=O` (stereo not given), the RP-LC retention time amounted to 580 s.

With `O=C(Nc1ccc(F)cc1)N1CCC(CCNC(=O)C2(c3ccccc3)CC2)CC1`, the RP-LC retention time is 897 s. `CCc1nn2c(CNC(=O)c3ccc(C(F)(F)F)cc3)c(-c3ccccc3)nc2s1` returned an RP-LC retention time of 1020 s. Turning to `COc1ccccc1NC(=O)Cn1c(C)cc(-c2nnc(-c3ccc(F)cc3)o2)c1C`, the RP-LC retention time came to 998 s. Regarding `COc1ccc(NC(=O)Cn2nc(N3CCCC(C)C3)c3ccccc3c2=O)cc1OC` (stereo not given), the RP-LC retention time turned out to be 997 s.

Consider `Cc1ccc(NS(=O)(=O)c2cc3n(c2)CCN(C(C)C)C3=O)c(C)c1`, for which the RP-LC retention time was 800 s. The compound `O=C(c1ccc2c(c1)OCO2)N1CC(F)(F)C[C@H]1COc1ccncc1` displayed an RP-LC retention time of 615 s. For `c1ccc(-n2nnnc2N2CCN(c3ccccn3)CC2)cc1`, the RP-LC retention time worked out at 571 s.

`O=C(CC1CCOC2(CCN(Cc3ccco3)CC2)C1)NC1CC1` (stereo not given) gave an RP-LC retention time of 573 s. As for `CCOC(=O)c1cc(S(=O)(=O)N2CCCC2C(=O)Nc2ccc(C)c(F)c2)cn1C` (stereo not given), the figure is 988 s. `COCC1(O)CCOC2(CCN(Cc3ccc(C)cc3)CC2)C1` (stereo not given) gave an RP-LC retention time of 556 s. With `COC(=O)N1CCc2ccc(Br)cc2C1C(=O)Nc1ccon1` (stereo not given), the RP-LC retention time was found to be 785 s. `CCN(Cc1ccccc1)c1ccc(-c2noc(CN3CCCC(C)C3)n2)cn1` (stereo not given) registered an RP-LC retention time of 792 s. In the case of `Cn1ncc2c3ccccc3n(CC(=O)NCc3cccs3)c2c1=O`, the RP-LC retention time came out at 764 s.
